Like-named read-outs stand apart in the source and are kept apart here. Marks after values point to notes of the source that are not given here.

The subject of the experiment is DispersinB. It is filed as biochemical, Aggregatibacter actinomycetemcomitans. The settings on record: for % enzymatic activity of DispersinB (Mean): polyol % as in label; for temperature stabilizing effect on DispersinB at elevated temperatures: 42° C., 52° C., and 62° C. As for the experimental part:
Samples from each formula was incubated at 3 different temperatures (42° C., 52° C. and 62° C.) for 3 hours. Following a 3 hour incubation, the samples were brought to room temperature for enzymatic activity assay.
Two-tailed paired T-test was performed by to compare each polyol containing treatment with the treatment devoid of polyol. Treatment with probability values (p) less than 5% (0.05) was considered significant.

On to `OC[C@@H](O)[C@@H](O)[C@H](O)[C@@H](O)CO` [sorbitol, (2S,3R,4R,5R)-Hexane-1,2,3,4,5,6-hexol], for which the “temperature stabilizing effect on DispersinB at elevated temperatures” value was “exhibited temperature stabilizing effect”. Moreover, where the note is “4° C., freshly made control without polyol = 100%, listed as Sorbitol 1%”, the “% enzymatic activity of DispersinB (Mean)” value (shortened to “% enzymatic activity”) is 112* %. In addition, under “4° C., freshly made control without polyol = 100%, listed as Sorbitol 2.5%”, the “% enzymatic activity” value is 107* %. The “% enzymatic activity” value (4° C., freshly made control without polyol = 100%, listed as Sorbitol 5%) is on record as 105* %. Under “4° C., freshly made control without polyol = 100%, listed as Sorbitol 10%”, the “% enzymatic activity” value is listed as 107* %. Also, the “% enzymatic activity” value (4° C., freshly made control without polyol = 100%, listed as Sorbitol 20%) is 110* %. Further, where the note is “4° C., freshly made control without polyol = 100%, listed as Sorbitol 30%”, the “% enzymatic activity” value is on record as 113* %. Besides, for the setting “42° C. for 3 hours, control without polyol = 100%, listed as Sorbitol 1%”, the “% enzymatic activity” value came to 80%. Under “42° C. for 3 hours, control without polyol = 100%, listed as Sorbitol 2.5%”, the “% enzymatic activity” value is given as 87%. Also, the “% enzymatic activity” value (42° C. for 3 hours, control without polyol = 100%, listed as Sorbitol 5%) is given as 89* %. Further, under “42° C. for 3 hours, control without polyol = 100%, listed as Sorbitol 10%”, the “% enzymatic activity” value was 88* %. The “% enzymatic activity” value (42° C. for 3 hours, control without polyol = 100%, listed as Sorbitol 20%) is 88* %. Besides, the “% enzymatic activity” value (42° C. for 3 hours, control without polyol = 100%, listed as Sorbitol 30%) is recorded as 101* %. For the same compound, for the setting “52° C. for 3 hours, control without polyol = 100%, listed as Sorbitol 1%”, the “% enzymatic activity” value was 6* %. Besides, the “% enzymatic activity” value (52° C. for 3 hours, control without polyol = 100%, listed as Sorbitol 2.5%) is recorded as 21* %. Also, the “% enzymatic activity” value (52° C. for 3 hours, control without polyol = 100%, listed as Sorbitol 5%) is recorded as 46* %. For the same compound, under “52° C. for 3 hours, control without polyol = 100%, listed as Sorbitol 10%”, the “% enzymatic activity” value was 82* %. The “% enzymatic activity” value (52° C. for 3 hours, control without polyol = 100%, listed as Sorbitol 20%) is on record as 94* %. Also, the “% enzymatic activity” value (52° C. for 3 hours, control without polyol = 100%, listed as Sorbitol 30%) is reported as 97* %. Further, the “% enzymatic activity” value (62° C. for 3 hours, control without polyol = 100%, listed as Sorbitol 5%) is recorded as 1* %. Further, the “% enzymatic activity” value (62° C. for 3 hours, control without polyol = 100%, listed as Sorbitol 10%) is reported as 3* %. Also, the “% enzymatic activity” value (62° C. for 3 hours, control without polyol = 100%, listed as Sorbitol 20%) is listed as 4* %. Besides, the “% enzymatic activity” value (62° C. for 3 hours, control without polyol = 100%, listed as Sorbitol 30%) is given as 46* %.
Regarding `OC[C@@H](O)[C@H](O)[C@@H](O)CO` [xylitol, Xylitol], the “% enzymatic activity” value reads like this: (4° C., freshly made control without polyol = 100%, listed as 0.25% Xylitol) 98%; (4° C., freshly made control without polyol = 100%, listed as 0.5% Xylitol) 106%; (4° C., freshly made control without polyol = 100%, listed as 1% Xylitol) 97%; (4° C., freshly made control without polyol = 100%, listed as 2% Xylitol) 117* %; (4° C., freshly made control without polyol = 100%, listed as 4% Xylitol) 120* %; (4° C., freshly made control without polyol = 100%, listed as 6% Xylitol) 115%. In addition, the “% enzymatic activity” value was 118% (4° C., freshly made control without polyol = 100%, listed as 8% Xylitol); 107% (4° C., freshly made control without polyol = 100%, listed as 10% Xylitol); 91* % (4° C., freshly made control without polyol = 100%, listed as 20% Xylitol); 85* % (4° C., freshly made control without polyol = 100%, listed as 30% Xylitol); 86* % (4° C., freshly made control without polyol = 100%, listed as 40% Xylitol); 90% (42° C. for 3 hours, control without polyol = 100%, listed as 0.25% Xylitol). Further, the “% enzymatic activity” value is 85% (42° C. for 3 hours, control without polyol = 100%, listed as 0.5% Xylitol); 88% (42° C. for 3 hours, control without polyol = 100%, listed as 1% Xylitol); 101* % (42° C. for 3 hours, control without polyol = 100%, listed as 2% Xylitol); 91% (42° C. for 3 hours, control without polyol = 100%, listed as 4% Xylitol); 97% (42° C. for 3 hours, control without polyol = 100%, listed as 6% Xylitol); 93% (42° C. for 3 hours, control without polyol = 100%, listed as 8% Xylitol). Moreover, the “% enzymatic activity” value is listed as 86% (42° C. for 3 hours, control without polyol = 100%, listed as 10% Xylitol); 80% (42° C. for 3 hours, control without polyol = 100%, listed as 20% Xylitol); 71* % (42° C. for 3 hours, control without polyol = 100%, listed as 30% Xylitol); 72* % (42° C. for 3 hours, control without polyol = 100%, listed as 40% Xylitol); 6% (52° C. for 3 hours, control without polyol = 100%, listed as 0.25% Xylitol); 7% (52° C. for 3 hours, control without polyol = 100%, listed as 0.5% Xylitol). In addition, the “% enzymatic activity” value reads like this: (52° C. for 3 hours, control without polyol = 100%, listed as 1% Xylitol) 9* %; (52° C. for 3 hours, control without polyol = 100%, listed as 2% Xylitol) 17* %; (52° C. for 3 hours, control without polyol = 100%, listed as 4% Xylitol) 26* %; (52° C. for 3 hours, control without polyol = 100%, listed as 6% Xylitol) 43* %; (52° C. for 3 hours, control without polyol = 100%, listed as 8% Xylitol) 53* %; (52° C. for 3 hours, control without polyol = 100%, listed as 10% Xylitol) 61* %. The “% enzymatic activity” value by setting is: (52° C. for 3 hours, control without polyol = 100%, listed as 20% Xylitol) 69* %; (52° C. for 3 hours, control without polyol = 100%, listed as 30% Xylitol) 70* %; (52° C. for 3 hours, control without polyol = 100%, listed as 40% Xylitol) 68* %; (62° C. for 3 hours, control without polyol = 100%, listed as 8% Xylitol) 1* %; (62° C. for 3 hours, control without polyol = 100%, listed as 10% Xylitol) 2* %; (62° C. for 3 hours, control without polyol = 100%, listed as 20% Xylitol) 2* %. The “% enzymatic activity” value by setting is: (62° C. for 3 hours, control without polyol = 100%, listed as 30% Xylitol) 3* %; (62° C. for 3 hours, control without polyol = 100%, listed as 40% Xylitol) 42* %.
Take Propylene glycol: the “temperature stabilizing effect on DispersinB at elevated temperatures” value is listed as “did not exhibit temperature stabilizing effects”. Moreover, the “% enzymatic activity” value (4° C., freshly made control without polyol = 100%, listed as Prop. Glycol 2.5%) was 119* %. Further, the “% enzymatic activity” value (4° C., freshly made control without polyol = 100%, listed as Prop. Glycol 5%) is 114* %. For the same compound, under “4° C., freshly made control without polyol = 100%, listed as Prop. Glycol 10%”, the “% enzymatic activity” value was 117* %. For the same compound, the “% enzymatic activity” value (4° C., freshly made control without polyol = 100%, listed as Prop. Glycol 20%) is on record as 124* %. Besides, the “% enzymatic activity” value (4° C., freshly made control without polyol = 100%, listed as Prop. Glycol 30%) is recorded as 106%. The “% enzymatic activity” value (42° C. for 3 hours, control without polyol = 100%, listed as Prop. Glycol 2.5%) is on record as 109* %. Further, under “42° C. for 3 hours, control without polyol = 100%, listed as Prop. Glycol 5%”, the “% enzymatic activity” value was 93* %. For the same compound, where the note is “42° C. for 3 hours, control without polyol = 100%, listed as Prop. Glycol 10%”, the “% enzymatic activity” value is recorded as 95* %. In addition, under “42° C. for 3 hours, control without polyol = 100%, listed as Prop. Glycol 20%”, the “% enzymatic activity” value was 46* %.

Source of the values: patent US20240041991A1, “STABLE LIQUID DISPERSINB COMPOSITIONS” (KANE BIOTECH INC., priority 2020, published 2024).
